Series [1] is described as follows: Pharmacokinetics in Sprague Dawley rats. The series is classed as in vivo, rat. Particulars: Sprague Dawley rats. How it is done: Blood was drawn at 5 min, 15 min, 30 min, 1 hr, 2 hrs, 4 hrs, 6 hrs, and 8 hrs into EDTA containing tubes and plasma was harvested by centrifugation. Plasma (25 μL) was treated with acetonitrile (125 μL) containing an internal standard. The sample was then centrifuged for 5 min at 4,000 rpm in a tabletop centrifuge and the filtrate was collected. The filtrate was injected onto a Thermo Betasil C18 HPLC column 5 (50×2.1 mm). Mobile Phase A was water with 0.1% formic acid. Mobile Phase B was acetonitrile with 0.1% formic acid. […] An API Sciex 4000 equipped with a turbo ion spray source was used for all analytical measurements. A positive ion MRM method was developed. Peak areas of the product ion were measured against the peak areas of the internal standard. Data was fit using WinNonLin (Pharsight Corporation, Mountain View, CA).

In the next series the test system is 6-OHDA-lesioned rats. Nature of the series: Behavioral tests in the 6-OHDA-lesioned rat model of Parkinson's disease. The series is classed as in vivo. Particulars: 10 mg/kg IP once daily. From the text: Behavioral tests in the 6-hydroxydopamine (6-OHDA)-lesioned rat model of Parkinson's disease. Male Wistar rats were trained for both the stepping and initiation time (IT) tests 6 days before treatment with 6-OHDA or NaCl (day −6). 5 days before treatment with 6-OHDA, animals from groups 1 to 3 were given vehicles [NaCl or a mixture of DMSO (10%)/tween 80 (10%)/water (80%)] once daily for 16 days. […] All the treatments were given via the IP route, once daily, Sunday excluded. Surgery was performed on DO under ketamine (50 mg/kg) and xylazine (10 mg/kg). Animals received a unilateral injection of 6-OHDA, 6 μl (sigma Aldrich) in the left substantia nigra pars compacta. During surgery, local analgesia was achieved using subcutaneous injections of lidocaine. At the end of surgery, animals were treated with buprenorphine (0.05 mg/kg, S.C.). […] For the IT test, only one of the two forelimbs was left free to move and the time that is necessary to initiate the movement toward the plane surface was recorded, using 180 sec as break-off point. […] In the stepping test, the rat was held by the experimenter and only one of the two forelimbs was left free to move above a plane surface. The other hand fixed the forelimb not to be monitored with one paw touching the table. The animal was then be moved slowly forward by the experimenter. The number of adjusting steps was counted for the right paw. […] In the cylinder test, animals were placed in a Plexiglas cylinder and, immediately, videotaped for 15 min. During this time, the numbers of contacts made on the cylinder wall with both the ipsilateral, the contralateral, and the two paws simultaneously (double contacts) were recorded and then expressed as a percentage of the total number of contacts.

A short description of series [2]: Brain barrier penetration in mice. The series is classed as in vivo. To be noted: mouse, brain/plasma, 10 mg/kg IP, 1 hr after dosing, read-out: brain/plasma ratio. From the text: The brains of the mice were harvested 1 hr after dosing. The brain/plasma ratio was 2.6.
The subject of series [3] is APPSWE/PSEN1dE9 double-transgenic mice. Nature of the series: Alzheimer's model behavioral test, Morris water maze. Particulars: 10 mg/kg IP daily for 4 weeks; vs vehicle. It is filed as in vivo, mouse. Here is the method: Briefly, the mice were shown a visible platform that was subsequently removed. The distance that the mice swim searching for the platform was measured, with a shorter distance indicating increased memory. […] Motor coordination, strength, and balance was assessed using the Rotarod test (FIG. 6, B). Mice were first trained until they could remain on a rotarod revolving at 16 rpm for three consecutive 120 sec trials. The next day the mice were placed back on the rotarod for a single trial at 18 rpm (maximum duration 120 sec). The duration a mouse could remain on the rotarod was recorded, and the mouse was then returned to its home cage. The speed of the rotarod was then increased to 21 rpm, and all mice were given another test trial. This process was repeated for rotarod speeds of 24, 27, 30, 33, and 36 rpm. All the speeds were repeated twice for the mice in different groups, interval 30 min every time. The Mean values of two tests were analyzed. The mice maintained longer time on the rotarod with more ability of motor coordination, strength and balance.

The test system of another series is liver of ob/ob mice. As to the kind of experiment: Liver expression of gluconeogenesis and lipogenesis genes in ob/ob mice. The series is classed as in vivo, mouse. Here is the method:
The expression of key genes involved in gluconeogenesis and lipogenesis was measured. RNA was isolated from liver samples of the ob/ob mice and mRNA expression of the indicated genes was quantified by Real-time PCR using iTaq Fast SYBR Green Supermix with ROX (Bio-Rad) in a 7500 Real-Time PCR systems (Applied Biosystems) using mouse specific primers. Gene expression is normalized to 18s. RNA was isolated using Trizol (Invitrogen). cDNA was generated using High Capacity cDNA Reverse Transcription kit (Applied Biosystems). Real-time PCR was performed with iTaq Fast SYBR Green Supermix with ROX (Bio-Rad) in 7500 Real-Time PCR systems (Applied Biosystems) using mouse specific primers. Gene expression was normalized to 18s. Isolated liver tissue was homogenized in RIPA buffer containing protease inhibitors and phosphatase inhibitors (Roche). Protein samples were matched for their protein concentrations and 30 micrograms of each sample were applied to SDS-PASE and transferred onto nitrocellulose membrane. Membranes were then incubated with the corresponding phosphor or total primary antibodies specific for the desired proteins followed by incubation with appropriate secondary antibodies conjugated to horseradish peroxidase (Pierce) and signal intensities were visualized by Chemiluminescence (Pierce). Films from at least four independent experiments were scanned and densities of the immunoreactive bands were evaluated using NIH Image software. GAPDH (Santa Cruz Biotechnology) was used as a loading control.

Another series has as its system SERCA (SR vesicles). Nature of the series: Activation of SERCA, increase in Vmax. It is filed as biochemical.
Series [4] concerns HeLa cells overexpressing BI-1. Nature of the series: Effect of a SERCA agonist on [Ca2+]ER (ER cameleon). To be noted: 24 hrs treatment, ER cameleon YFP/CFP. The series is classed as cell-based. How it is done:
To directly measure ER Ca^2+ content, a genetically encoded Ca^2+ indicator, ER cameleon, was used. HeLa cells were transfected with ER-cameleon encoding plasmid for 2 days before analysis. Cells were treated with a test compound for 24 hrs and imaged in Ca^2+-free HBSS upon addition of thapsigargin to deplete ER stores. Emission ratio imaging of the ER cameleon was accomplished using a 430/24 excitation filter, 450-nm dichroic mirror, and two emission filters (475/40 for CFP and 535/25 for YFP). The fluorescence ratio of YFP/CFP is a measure of relative ER Ca^2+ levels.

The text below walks through data of US11890279B2, “Quinolines that modulate SERCA and their use for treating disease” (Neurodon Corporation, priority 2020, dated 2024).

Experimental for SERCA (SR vesicles): Test compounds were characterized over a range of concentrations using an NADH-linked, enzyme-coupled ATPase assay. Each well contained 2 mg or 7 mg of SR vesicles (optimized for skeletal or cardiac SR, respectively), 50 mM MOPS (pH 7.0), 100 mM KCl, 5 mM MgCl2, 1 mM EGTA, 0.2 mM NADH, 1 mM phosphoenol pyruvate, 5 IU pyruvate kinase, 5 IU lactate dehydrogenase, and 3.5 mg/mL A23187 (a calcium ionophore), and CaCl2 was added to set free [Ca2+] to the specific values. The assay was started upon addition of ATP at a final concentration of 5 mM, and read in a SpectraMax Plus microplate spectrophotometer and the ATPase activities were fitted using the Hill function.

In series [1] (listed under oral pharmacokinetic properties), `Cc1ccc2cccc(NC(=O)c3ccc(OC(C)C)cc3)c2n1` [Compound A12, 4-Isopropoxy-N-(2-methylquinolin-8-yl)benzamide] registered a CLobs of 251 mL/min/kg. Besides, in series [1] (rat, plasma, oral, 2 mg/kg P.O.), the Cmax (as a rule, the highest concentration seen after dosing) turned out to be 260 nM. In series [1] (rat, plasma, oral, 2 mg/kg P.O., read-out: AUClast), the AUC(0-t) is 0.41 µM·h. Moreover, in the series with 6-OHDA-lesioned rats, the “initiation time (IT test)” value is given as “reduced”, the “number of adjusting steps (stepping test)” value is “increased” and the “number of contacts (cylinder test)” value is recorded as “increased”. Moreover, the Kp at 1 h in series [2] amounted to 2.6. The “total distance in hidden platform test (Morris water maze)” value in series [3] is recorded as “a decrease in total distance”. In the series with liver of ob/ob mice, the “expression of PPARα and PGC1α” value is “increased”; the “mRNA expression of G6PAse and PEPCK” value is “significantly reduced”; the “mRNA expression of lipogenic genes (SCD1, DGAT2, FASn, SREBP1c)” value is reported as “significantly reduced”. Moreover, in the series on SERCA (SR vesicles), the “Increase in Vmax at 10 μM” value was “A′ (A′ represents an increase greater than 50%)”. For the same molecule, the “[Ca^2+]ER” value in series [4] is given as “significantly restored”.
